The record followed here is ChEMBL document CHEMBL1629669, “Two clinical strains of Klebsiella pneumoniae carrying plasmid-borne blaIMP-4, blaSHV-12, and armA isolated at a Pediatric Center in Shanghai, China” (2009).

What all share (assay type): functional
For assay [1], the system named is Klebsiella pneumoniae. The experiment in a line: Antimicrobial activity against carbapenem susceptible Klebsiella pneumoniae isolate KpSCMC2c harboring bla SHV-12 gene isolated from patient with pulmonary infection by Etest method.
Assay [2] concerns Klebsiella pneumoniae. The experiment in a line: Antimicrobial activity against multidrug resistant Klebsiella pneumoniae isolate KpSCMC1 harboring int1, bla IMP-4, bla SHV-12, armA and sul1 gene isolated from patient with pulmonary infection by disk diffusion method.
In assay [3] the test system is Klebsiella pneumoniae. The experiment in a line: Antimicrobial activity against carbapenem susceptible Klebsiella pneumoniae isolate KpSCMC2c harboring bla SHV-12 gene isolated from patient with pulmonary infection by disk diffusion method.
The subject of assay [4] is Klebsiella pneumoniae. The experiment in a line: Antimicrobial activity against multidrug resistant Klebsiella pneumoniae isolate KpSCMC1 harboring int1, bla IMP-4, bla SHV-12, armA and sul1 gene isolated from patient with pulmonary infection by Etest method.
The test system of assay [5] is Klebsiella pneumoniae. The assay is described as follows: Antimicrobial activity against multidrug resistant Klebsiella pneumoniae isolate KpSCMC2 harboring int1, bla IMP-4, bla SHV-12, armA and sul1 gene isolated from patient with pulmonary infection by disk diffusion method. On the technique in general: A growth-free zone around the sample is the usual read-out of agar diffusion tests.

The subject of assay [6] is Klebsiella pneumoniae. The assay is described as follows: Antimicrobial activity against multidrug resistant Klebsiella pneumoniae isolate KpSCMC2 harboring int1, bla IMP-4, bla SHV-12, armA and sul1 gene isolated from patient with pulmonary infection by Etest method.

Values after ≈ are worked out from the molar mass of the structure shown.

Regarding `C[C@@H](O)[C@H]1C(=O)N2C(C(=O)O)=C(SCCNC=N)C[C@H]12` [IMIPENEM ANHYDROUS], the MIC (usually the least concentration at which growth counts as inhibited) in assay [1] stood at 0.064 µg/mL (≈ 0.214 µM); in assay [4], 3 µg/mL (≈ 10 µM); in assay [6] it was 2 µg/mL (≈ 6.68 µM). Further, the “inhibition zone (IZ)” value in assay [2] was found to be 21 mm; in assay [3], 26 mm; in assay [5] it was 20 mm.
As for `C[C@@H](O)[C@H]1C(=O)N2C(C(=O)O)=C(S[C@@H]3CN[C@H](C(=O)N(C)C)C3)[C@H](C)[C@H]12` [MEROPENEM], the MIC worked out at 0.25 µg/mL (≈ 0.652 µM) in assay [1], 8 µg/mL (≈ 20.9 µM) in assay [4] and 4 µg/mL (≈ 10.4 µM) in assay [6]. In addition, the “inhibition zone (IZ)” value in assay [2] was found to be 14 mm; in assay [3] it was 27 mm; in assay [5] it was 13 mm.
